“Also recorded” adds a separate entry of the source.
Legend:
CEM cells = test: Cytotoxic or cytostatic effects on CEM cells grown in presence of peptide; format: cell-based; settings: 50 mg/ml (highest concentration tested), three days, fresh peptide added each day
HIV-1LAI virus = test: Peptide blockade of HIV-1 induced cell-cell fusion (syncytia formation; Molt4 cells co-cultivated with chronically infected CEM cells); format: cell-based; design: Anti-fusogenic activity (in words): dose or concentration left out as unconfirmed; settings: for Fusion: quantity of compound required for 90% reduction in number of syncytia: control = 90 syncytia; for No. Syncytia/well: Table 3, ctrl cells only = 85; for Inhibitory / anti-viral / biological activity (in words): cell fusion assay
Protocol: The initial screen for antiviral activity of the peptides shown in FIG. 1 was for blockade of syncytium formation induced by overnight co-cultivation of uninfected Molt4 cells with chronically infected (HIV-1IIIB) CEM cells.
Approximately 7×10^4 Molt cells were incubated with 1×10^4 CEM cells chronically infected with the HIV-1LAI virus in 96 well plates (one-half area cluster plates;Costar. Cambridge, Mass.) in a final volume of […] culture media in accordance with known techniques (T. Matthews et al., Proc. Natl. Acad. Sci. U.S.A. 84, 5424 (1987)). Peptide inhibitors were added in a volume of […] and the cell mixtures were incubated for 24 hr at 37° C. At that time point, multinucleated giant cells were estimated by microscopic examination at a 40× magnification which allowed visualization of the entire well in a single field.

HIV-1LAI = test: Peptide inhibition of infection by cell-free virus (neutralization assay; AA5 cells, RT activity readout); format: cell-based
Protocol: Cell cultures were maintained in 96-well microtiter plates for 8 days by addition of fresh medium (but no further addition of peptides) every other day. On the eighth day post-infection, supernatant was tested for reverse transcriptase activity as evidence of successful infection.
The micro RT assay was adapted from Goff et al. (J. Virol. 38, 239 (1981)) and Willey et al. (J. Virol. 62, 139 (1988)). Supernatants from virus/cell cultures are made 1% in Triton-X100. A […] sample of supernatant was added to 50 ml of RT cocktail in a 96 well U bottom microtiter plate and the samples incubated at […] for 90 min. The cocktail contained 75 mM KCl, 2 mM dithiothreitol, 5 mm Mgcl2l 5 mg/ml poly A (Pharmacia cat. No. 27-4110-01), 0.25 units/ml oligo dT (Pharmacia cat. No. 27-7858-01), 0.05% NP40, 50 mM Tris-HC1, pH 7.8, 0.5 mM non-radioactive dTTP, and 10 mCi/ml ^32p-dTTP (Amersham cat. No. PB.10167). After the incubation period, 40 ml of reaction mixture was applied to a Schleicher and Schuell NA45 membrane (or DE81 paper) saturated in 2×SSC buffer (0.3M NaCl and […]) held in a Schleicher and Schuell Minifold over one sheet of GB003 filter paper. Each well of the minifold was washed four times with […] 2×SSC. The membrane was removed from the minifold and washed 2 more times in a pyrex dish with an excess of 2×SSC. Finally the membrane was drained on absorbent paper, placed on Whatman #3 paper, covered with saran wrap, and exposed to film overnight.
The HIV1LAI virus was obtained from R. Gallo (see M. Popovic et al., Science 224, 497 (1984)) and propagated in CEM cells cultured in RPMI 1640 containing 10-% FCS. Supernatant from the infected CEM cells was passed through a […] and the infectious titer estimated in a microinfectivity assay using the AA5 cell line to support virus replication. For this purpose 25 ml of serially diluted virus was added to 75 ml AA5 cells at 2×10^5/ml in a 96 well microtiter plate. Each virus dilution was tested in triplicate. Cells were cultured for eight days by addition of fresh medium every other day. On day 8 post infection supernatant samples were tested for virus replication as evidenced by RT activity released to the supernatant in accordance with the procedure described above. The TCID50 was calculated according to the Reed and Muench formula in accordance with known techniques. See L. Reed et al., Amer. J. Hygiene 27, 493 (1938) . The titer of the HIV-1LAI stock used for these studies, as measured on the AA5 cell line, was approximately 1×10^7TCID50/ml. The two primary isolates were obtained from PBMCs of two infected donors, one from Brazil (HIV-1Br3) and the other Trinidad (HIV-1Q72775) by co-cultivation with PHA-blasted normal donor PBMCs in RPMI 1640 containing IL2. The infectious titers of the primary virus stocks were estimated by titration onto normal human PHA blasted PBMCs in a 96 well microtiter plate, again using RT activity released to the supernatant as evidence for successful infection. The infectious titer of both of these isolates was estimated to be approximately 1×10^3 TCID100/ml.
The peptides were next tested for blockade of infection by cell-free virus. The results shown in FIG. 3 are representative of several experiments in which the DP-107, 125, and (CS3) peptides were compared for potency in the blockade of HIVLAI, infection of AA5 cells. Each level of peptide was incubated in triplicate with about 500 TCID50 of virus and cells. After 7 days of culture, cell-free supernatant was tested for the presence of RT activity as a measure of successful infection.

[1] = Circular dichroism spectra / thermal melt (secondary structure in solution); format: physicochemical; settings: for Conformation by CD spectra (in words): 37° C.
Protocol: (A) and 37° C. (B). Concentration dependence of the midpoint of the temperature dependence (Tm) of the CD signal (C). Tm corresponds to the maxima of the first derivative of the CD melt curve. The CD spectra were obtained in […], 150 mM sodium chloride buffer at pH 7.0.
Circular dichroism spectra were measured in 10 mM sodium phosphate, 150 mM sodium chloride, pH 7.0 buffer at approximately […] using a 1 cm pathlength cell on a Jobin/Yvon Autodichrograph Mark V CD spectrometer. Peptide concentrations were determined from A280 using Edlehoch's method (Biochemistry 6, 1948 (1967)).

[2] = biological target: the molecule itself; test: CD thermal melt, concentration dependence of Tm (self-association)
[3] = peptide concentration 1.25 ug/ml on IIIB
[4] = peptide concentration 2.5 ug/ml on IIIB
[5] = peptide concentration 5 ug/ml on IIIB
[6] = peptide concentration 10 ug/ml on IIIB
[7] = peptide concentration 20 ug/ml on IIIB
[8] = peptide concentration 40 ug/ml on IIIB
[9] = EXP. 1, peptide concentration 1.5 micrograms/ml, 0 peptide = 89
[10] = EXP. 1, peptide concentration 3 micrograms/ml, 0 peptide = 89
[11] = EXP. 1, peptide concentration 6 micrograms/ml, 0 peptide = 89
[12] = EXP. 1, peptide concentration 12 micrograms/ml, 0 peptide = 89
[13] = EXP. 1, peptide concentration 25 micrograms/ml, 0 peptide = 89
[14] = EXP. 1, peptide concentration 50 micrograms/ml, 0 peptide = 89

Molecule	Fusion: quantity of compound required for 90% reduction in number of syncytia (HIV-1LAI virus) [µg/mL]	Neutraliz: quantity of compound required for 90% reduction in infectivity (HIV-1LAI) [µg/mL]	No. Syncytia/well (HIV-1LAI virus; [3])	No. Syncytia/well (HIV-1LAI virus; [4])	No. Syncytia/well (HIV-1LAI virus; [5])	No. Syncytia/well (HIV-1LAI virus; [6])	No. Syncytia/well (HIV-1LAI virus; [7])	No. Syncytia/well (HIV-1LAI virus; [8])	also measured
Ac-NNLLRAIEAQQHLLQLTVWGIKQLQARILAVERYLKDQ-NH2 [DP-107]	–	–	–	–	–	–	–	–	Viability and growth rate of CEM cells (CEM cells): same viability and growth rate as control cultures
CGGNNLLRAIEAQQHLLQLTVWGIKQLQARILAV [DP-136]	>40	>30	–	–	–	–	–	–	–
CGGNNLLRAIEAQQHLLQLTVWGIKQLQARILAVERYLKDQGGC [DP-130]	2	<1	47	0	0	0	0	0	–
DP-31: peptide representing an overlapping immunodominant site of gp41 (SEQ ID NO: 5); sequence only in FIG. 1 (H-ERYLKDQQLLGIWGCSCKLICG-OH; cysteine pairing not given here)	–	–	–	–	–	–	–	–	Syncytia Number (HIV-1LAI virus; [9]): 75; Syncytia Number (HIV-1LAI virus; [10]): 90; Syncytia Number (HIV-1LAI virus; [11]): 87; Syncytia Number (HIV-1LAI virus; [12]): 78; Syncytia Number (HIV-1LAI virus; [13]): 80; Syncytia Number (HIV-1LAI virus; [14]): 85; Inhibitory / anti-viral / biological activity (in words) (HIV-1LAI virus): failed to show inhibitory activity
GIKQLQARILAVERYLKDQQ [DP-122]	>40	>30	–	–	–	–	–	73	–
IEAQQHLLQLTVWGIKQLQARILAVERYLKDQ [DP-123]	40	>30	80	69	76	86	55	4	–
LQARILAVERYLKDQQQ [DP-116, reference compound]	>40	>30	–	–	–	–	–	77	Conformation by CD spectra (in words) [1]: random coil conformations; Stable secondary structure by CD (in words) ([1]; even at low temperatures and high concentrations): no evidence for stable secondary structure; Anti-fusogenic activity (in words) (HIV-1LAI virus): no evidence of anti-fusogenic activity; Syncytia Number (HIV-1LAI virus; [9]): 82; Syncytia Number (HIV-1LAI virus; [10]): 89; Syncytia Number (HIV-1LAI virus; [11]): 92; Syncytia Number (HIV-1LAI virus; [12]): 93; Syncytia Number (HIV-1LAI virus; [13]): 82; Syncytia Number (HIV-1LAI virus; [14]): 89; Blockade of HIVLAI infection of AA5 cells (in words) (HIV-1LAI; about 500 TCID50 of virus, RT activity in supernatant, FIG. 3): no hint of anti-viral effect
NNLLRAIEAQQHLLQLTVWGAKQLQARILAVERYLKDQ [DP-140]	17	14	–	–	–	–	–	–	–
NNLLRAIEAQQHLLQLTVWGIKQLQARILAV [DP-127]	7	23	87	53	20	0	0	0	–
NNLLRAIEAQQHLLQLTVWGIKQLQARILAVERYLKDQGGC [DP-129]	<1	<1	0	0	0	0	0	0	–
NNLLRAIEAQQHLLQLTVWGPKQLQARILAVERYLKDQ (Ac-NNLLRAIEAQQHLLQLTVWGPKQLQARILAVERYLKDQ-NH2) [DP-121]	>40	>30	–	–	–	–	–	79	Conformation by CD spectra (in words) [1]: random coil conformations; also recorded: failed to exhibit helix related signals; Syncytia Number (HIV-1LAI virus; EXP. 3, peptide concentration 2.5 micrograms/ml, 0 peptide = 76): 68; Syncytia Number (HIV-1LAI virus; EXP. 3, peptide concentration 5 micrograms/ml, 0 peptide = 76): 60; Syncytia Number (HIV-1LAI virus; EXP. 3, peptide concentration 10 micrograms/ml, 0 peptide = 76): 65; Syncytia Number (HIV-1LAI virus; EXP. 3, peptide concentration 20 micrograms/ml, 0 peptide = 76): 71; Syncytia Number (HIV-1LAI virus; EXP. 3, peptide concentration 40 micrograms/ml, 0 peptide = 76): 69; Inhibitory / anti-viral / biological activity (in words) (HIV-1LAI virus): did not exhibit anti-viral activity; also recorded: no sign of inhibitory activity
NNLLRAIEAQQHLLQLTVWGSKQLQARILAVERYLKDQ [DP-139]	>40	>30	–	–	–	–	–	–	–
QQLLDVVKRQQEMLRLTVWGTKNLQARVTAIEKYLKDQ [DP-118]	–	–	74	78	80	77	0	0	–
Ac-NNLLRAIEAQQHLLQLTVWGIKQLQARILAVERYLKDQ-NH2 (Synthetic peptide; also called peptide DP-107) [DP-107]	–	–	–	–	–	–	–	–	binding result [2]: binds

Source: US6573078B1, “Compounds which inhibit HIV replication” (priority 1992, dated 2003)
